Our source for the IC50 values is BindingDB's records for doi:10.1021/cb4007562 (University of Konstanz, 2014).

One assay has as its target DNA polymerase beta (Homo sapiens, UniProt P06746). As to the kind of experiment: DNA Pol β PEX Assay. The following applies: pH 7.9. Here is the method:
Pol β reactions were made in a final volume of 20uL containing 50mM Tris-HCl pH 7.9, 20mM KCl, 5% (v/v) glycerol, 1mM DTT, 2mM MnCl2, 250nM purified recombinant pol β, 150nM radioactive-labeled primer F20H, 225nM template F33A, 0.1mg/mL BSA, 1uL compound solution with various concentrations in DMSO (1uL DMSO for the solvent control). 5uL dNTP (15uM final) was added to initiate the reactions and positive controls. Reactions and controls were incubated for 30 min at 37 degrees Celsius and subsequently quenched using 45uL PAGE loading solution (80% (v/v) formamide, 20mM EDTA, 0.05% (w/v) bromophenol blue, 0.05% (w/v) xylene cyanol) per well. The reaction mixture was denatured for 5 min at 95 degrees Celsius and analyzed by 12% PAGE containing 8M urea.

The next assay has as its target T1, DNA polymerase lambda (Homo sapiens, UniProt Q9UGP5).
T1 sequence (Q9UGP5 whole entry): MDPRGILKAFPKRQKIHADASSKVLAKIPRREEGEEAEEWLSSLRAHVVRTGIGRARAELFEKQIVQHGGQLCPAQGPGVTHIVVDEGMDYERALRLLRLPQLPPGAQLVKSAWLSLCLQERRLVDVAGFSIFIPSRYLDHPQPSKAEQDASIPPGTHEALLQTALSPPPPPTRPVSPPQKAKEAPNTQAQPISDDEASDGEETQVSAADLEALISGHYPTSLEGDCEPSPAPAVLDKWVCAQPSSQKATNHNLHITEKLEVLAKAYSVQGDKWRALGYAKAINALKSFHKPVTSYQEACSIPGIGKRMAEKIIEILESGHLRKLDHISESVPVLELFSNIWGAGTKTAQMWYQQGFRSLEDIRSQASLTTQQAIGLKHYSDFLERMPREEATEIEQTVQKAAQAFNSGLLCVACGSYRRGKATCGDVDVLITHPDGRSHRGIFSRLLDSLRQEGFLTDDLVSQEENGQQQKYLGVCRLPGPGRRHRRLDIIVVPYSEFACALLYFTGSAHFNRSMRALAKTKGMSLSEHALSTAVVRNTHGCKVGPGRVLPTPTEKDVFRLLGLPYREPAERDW
As to the kind of experiment: DNA Pol λ PEX Assay. The note with it: pH 7.5. Here is the method: Pol λ reactions were made in a final volume of 20uL containing 50mM Tris-HCl pH 7.5, 1.5mM MgCl2, 5% (v/v) glycerol, 1mM DTT, 250nM purified recombinant pol λ, 150nM radioactive-labled primer F20H, 225nM template F33A, 0.1mg/mL BSA, 1uL compound solution with variable concentrations in DMSO (1uL DMSO for the solvent control). 5uL dNTP solution (15uM final) was added to initiate the reactions and positive controls. Reactions and controls were incubated for 30 min at 37 degrees Celsius and subsequently quenched using 45uL PAGE loading solution (80% (v/v) formamide, 20mM EDTA, 0.05% (w/v) bromophenol blue, 0.05% (w/v) xylene cyanol) per well. The reaction mixture was denatured for 5 min at 95 degrees Celsius and analyzed by 12% PAGE containing 8M urea.

Usually IC50 stands for the concentration that gives 50% inhibition. A high value points to weaker potency.

For `Cc1ccccc1Sc1ccc(C=C2SC(S)=NC2=O)cc1` [23 (Z)-2-Thioxo-5-(4-(o-tolylthio)benzylidene)thiazolidin-4-one 28], the 50% inhibitory concentration (IC50) against DNA polymerase beta is 50 µM; on DNA polymerase lambda it was below 10 µM.
The like results for `Cc1ccccc1Sc1ccc(C=C2SC(S)=NC2=O)cc1C(F)(F)F` [(Z)-2-Thioxo-5-(4-(o-tolylthio)-3-(trifluoromethyl)benzylidene)thiazolidin-4-one 30] were, in that order, below 50 µM and below 10 µM.
The like results for `Cc1ccc(Sc2ccc(C=C3SC(S)=NC3=O)cc2C(F)(F)F)cc1` [(Z)-2-Thioxo-5-(4-(p-tolylthio)-3-(trifluoromethyl)benzylidene)thiazolidin-4-one 15] were, in that order, 28.1 µM and below 10 µM.
The like results for `Cc1ccc(Sc2ccc(C=C3SC(S)=NC3=O)cc2)cc1` [(Z)-2-Thioxo-5-(4-(p-tolylthio)benzylidene)thiazolidin-4-one 11] were, in that order, below 50 µM and below 10 µM.
For `C=C(c1ccc(Sc2ccc(C)cc2)c([N+](=O)[O-])c1)c1sc(S)nc1O` [(Z)-5-(1-(3-Nitro-4-(p-tolylthio)phenyl)ethylidene)-2-thioxothiazolidin-4-one 8], the IC50 was below 50 µM against DNA polymerase beta and below 10 µM on DNA polymerase lambda.
On to `Cc1ccc(Sc2ccc(C=C3SC(S)=NC3=O)c(Sc3ccc(C)cc3)c2)cc1` [(Z)-5-(2,4-Bis(p-tolylthio)benzylidene)-2-thioxothiazolidin-4-one 31], for which the values for the half-maximal inhibitory concentration (IC50) at DNA polymerase beta and against DNA polymerase lambda were below 50 µM and 4 µM, respectively.
The like results for `Cc1ccc(Sc2ccc(C=C3SC(S)=NC3=O)cc2Br)cc1F` [(Z)-5-(3-Bromo-4-((3-fluoro-4-methylphenyl)thio)benzylidene)-2-thioxothiazolidin-4-one 27] were, in that order, above 50 µM and 4 µM.
The like results for `Cc1ccc(Sc2ccc(C=C3SC(S)=NC3=O)cc2Br)cc1` [(Z)-5-(3-Bromo-4-(p-tolylthio)benzylidene)-2-thioxothiazolidin-4-one 14] were, in that order, above 50 µM and below 10 µM.
The like results for `Cc1ccc(Sc2ccc(C=C3SC(S)=NC3=O)cc2Cl)cc1` [(Z)-5-(3-Chloro-4-(p-tolylthio)benzylidene)-2-thioxothiazolidin-4-one 13] were, in that order, above 50 µM and 5.7 µM.
As to `Cc1ccccc1Sc1ccc(C=C2SC(S)=NC2=O)cc1F` [(Z)-5-(3-Fluoro-4-(o-tolylthio)benzylidene)-2-thioxothiazolidin-4-one 29], the values for the concentration for half-maximal inhibition (IC50) against DNA polymerase beta and on DNA polymerase lambda were 50 µM and below 10 µM, respectively.
The like results for `Cc1ccc(Sc2ccc(C=C3SC(S)=NC3=O)cc2F)cc1` [(Z)-5-(3-Fluoro-4-(p-tolylthio)benzylidene)-2-thioxothiazolidin-4-one 12] were, in that order, 38.7 µM and below 10 µM.
As to `O=C1N=C(S)SC1=Cc1ccc(Sc2c(F)c(F)c(C(F)(F)F)c(F)c2F)c([N+](=O)[O-])c1` [(Z)-5-(3-Nitro-4-((2,3,5,6-tetrafluoro-4-(trifluoromethyl)phenyl)thio)benzylidene)-2-thioxothiazolidin-4-one 21], the IC50 against DNA polymerase beta is above 50 µM; at DNA polymerase lambda it was below 10 µM.
The like results for `O=C1N=C(S)SC1=Cc1ccc(Sc2ccc(OC(F)(F)F)cc2)c([N+](=O)[O-])c1` [(Z)-5-(3-Nitro-4-((4-(trifluoromethoxy)phenyl)thio)benzylidene)-2-thioxothiazolidin-4-one 19] were, in that order, above 50 µM and below 20 µM.
Consider `O=C1N=C(S)SC1=Cc1ccc(Sc2ccc(C(F)(F)F)cc2)c([N+](=O)[O-])c1` [(Z)-5-(3-Nitro-4-((4-(trifluoromethyl)phenyl)thio)benzylidene)-2-thioxothiazolidin-4-one 18], for which the half-inhibitory concentration (IC50) against DNA polymerase beta is above 50 µM; at DNA polymerase lambda, below 10 µM.
The like results for `Cc1cccc(Sc2ccc(C=C3SC(S)=NC3=O)cc2[N+](=O)[O-])c1` [(Z)-5-(3-Nitro-4-(m-tolylthio)benzylidene)-2-thioxothiazolidin-4-one 22] were, in that order, 29.8 µM and 6 µM.
Turning to `Cc1ccccc1Sc1ccc(C=C2SC(S)=NC2=O)cc1[N+](=O)[O-]` [(Z)-5-(3-Nitro-4-(o-tolylthio)benzylidene)-2-thioxothiazolidin-4-one 23], the figures for the IC50 against DNA polymerase beta and at DNA polymerase lambda were 18.2 µM and 3.9 µM, respectively.
Turning to `Cc1ccc(Sc2ccc(C=C3SC(O)=NC3=O)cc2[N+](=O)[O-])cc1` [(Z)-5-(3-Nitro-4-(p-tolylthio)benzylidene)thiazolidine-2,4-dione 3], the results for the half-maximal inhibitory concentration (IC50) against DNA polymerase beta and at DNA polymerase lambda were above 50 µM and below 10 µM, respectively.
As to `Cc1ccc(S(=O)(=O)c2ccc(C=C3SC(S)=NC3=O)cc2[N+](=O)[O-])cc1` [(Z)-5-(3-Nitro-4-tosylbenzylidene)-2-thioxothiazolidin-4-one 10], the IC50 on DNA polymerase lambda is below 20 µM.
For `Cc1ccc(Sc2ccc(C=C3SC(S)=NC3=O)cc2[N+](=O)[O-])cc1F` [(Z)-5-(4-((3-Fluoro-4-methylphenyl)thio)-3-nitrobenzylidene)-2-thioxothiazolidin-4-one 20], the 50% inhibitory concentration (IC50) on DNA polymerase beta is above 50 µM; at DNA polymerase lambda, below 10 µM.
Turning to `CCc1ccc(Sc2ccc(C=C3SC(S)=NC3=O)cc2[N+](=O)[O-])cc1` [(Z)-5-(4-((4-Ethylphenyl)thio)-3-nitrobenzylidene)-2-thioxothiazolidin-4-one 17], the IC50 against DNA polymerase beta was below 50 µM; against DNA polymerase lambda it was below 10 µM.
As for `O=C1N=C(S)SC1=Cc1ccc(SC2CCCCC2)c([N+](=O)[O-])c1` [(Z)-5-(4-(Cyclohexylthio)-3-nitrobenzylidene)-2-thioxothiazolidin-4-one 2], the values for the IC50 against DNA polymerase beta and on DNA polymerase lambda were below 50 µM and below 10 µM, respectively.
With `O=C1N=C(S)SC1=Cc1ccc(SC2CCCC2)c([N+](=O)[O-])c1` [(Z)-5-(4-(Cyclopentylthio)-3-nitrobenzylidene)-2-thioxothiazolidin-4-one 26], the values for the IC50 against DNA polymerase beta and against DNA polymerase lambda were above 50 µM and below 20 µM, respectively.
The like results for `O=C1N=C(S)SC1=Cc1ccc(Sc2ccc3ccccc3c2)c([N+](=O)[O-])c1` [(Z)-5-(4-(Naphthalen-2-ylthio)-3-nitrobenzylidene)-2-thioxothiazolidin-4-one 25] were, in that order, above 50 µM and below 10 µM.
The like results for `Cc1ccc(Sc2sc(C=C3SC(S)=NC3=O)cc2Br)cc1` [(Z)-5-((4-Bromo-5-(p-tolylthio)thiophen-2-yl)methylene)-2-thioxothiazolidin-4-one 32] were, in that order, below 50 µM and below 10 µM.
As to `Cc1ccc(Sc2ccc(C=C3SC(S)=NC3=O)cc2C#N)cc1` [(Z)-5-((4-Oxo-2-thioxothiazolidin-5-ylidene)methyl)-2-(ptolylthio) benzonitrile 16], on DNA polymerase lambda, the half-maximal inhibitory concentration (IC50) was below 10 µM.
On to `Cc1ccc(Sc2ccc(C=C3SC(S)=NC3=O)cc2[N+](=O)[O-])cc1` [DNA polymerase inhibitor 1], for which the half-inhibitory concentration (IC50) at DNA polymerase beta was 64.4 µM; against DNA polymerase lambda, 5.9 µM.
